In patent US20240408096A1, “DOSING REGIMENS FOR ORAL ALK2 KINASE INHIBITORS” (BioCryst Pharmaceuticals, Inc., priority 2020, published 2024):
Changes are numbered by the printed parent chain.

How the values were obtained:
[1] = Phase 1 Parts 1 and 2 Holter ECG pharmacodynamics / exposure-response; format: in vivo, human
Protocol: ECGs were obtained according to the schedule in Tables 4 and 5 for Parts 1 and 2, respectively. A standard bedside 12-lead ECG machine or telemetry system that calculates HR and measures the PR, QRS, QT, RR, and QTc (QTcF) intervals was used. The acceptable deviations from the nominal ECG measurement time points were: re-dose: ≤2 hours before dosing; post dose: ±15 minutes from the nominal post-dose time point; and discharge: ±1 hour from the nominal time point.
Where possible, Holter-obtained and adjudicated ECGs were used to determine the change from baseline in mean differences in QTcF between each active treatment chosen to be analyzed relative to that obtained on subjects receiving placebo within a study part (for Part 2, within each cohort). At each time point Holter ECGs are analyzed, an individual subject's change from baseline will be calculated as:
Δik=(QTcF for subject I at time point k−Baseline QTcF), where QTcF measurements will be the average of triplicate ECGs at each time point. Baseline QTcF is the average of all pre-dose values.

[2] = Phase 1 Parts 1 and 2 blood pressure pharmacodynamics / exposure-response; format: in vivo, human
Text: Where possible, systolic and diastolic BP measurements will be used to determine the change from baseline between each active treatment relative to that obtained on subjects receiving placebo within a study part. At each time point blood pressure data is collected, an individual subject's change from baseline will be calculated.

[3] = plasma protein binding, rat; format: in vitro ADME; details: in vitro
CYP2C19 = CYP2C19 (Homo sapiens, UniProt P33261); assay: CYP inhibition in vitro; format: in vitro ADME
Chain of CYP2C19 (P33261 whole entry): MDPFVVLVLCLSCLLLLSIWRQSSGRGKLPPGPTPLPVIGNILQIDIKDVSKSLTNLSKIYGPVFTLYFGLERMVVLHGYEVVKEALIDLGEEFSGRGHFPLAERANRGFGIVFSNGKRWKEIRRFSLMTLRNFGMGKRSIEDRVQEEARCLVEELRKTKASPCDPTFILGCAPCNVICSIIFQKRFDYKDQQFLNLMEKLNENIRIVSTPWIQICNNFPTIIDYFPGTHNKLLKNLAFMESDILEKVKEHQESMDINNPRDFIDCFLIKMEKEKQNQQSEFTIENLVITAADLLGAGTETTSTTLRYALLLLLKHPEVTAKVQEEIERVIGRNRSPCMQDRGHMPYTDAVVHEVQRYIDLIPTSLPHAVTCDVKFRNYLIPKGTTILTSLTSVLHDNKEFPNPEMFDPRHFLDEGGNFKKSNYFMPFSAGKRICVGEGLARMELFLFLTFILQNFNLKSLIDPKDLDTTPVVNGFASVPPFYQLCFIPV

[4] = plasma protein binding, dog; format: in vitro ADME; details: in vitro
[5] = Phase 1 Part 2 (MAD) urinary PK; format: in vivo, human; details: for CLR,0-6 / CLR,6-12 / CLR,32-24 / CLR,144-150 / CLR,150-156 / CLR,156-168 / Cum % excreted0-168 / CumAe0-168: Part 2 MAD, geometric mean (CV%); for CumAe0-168: urine 0 to 168 hours
Protocol: Four sequential MAD cohorts were dosed.
Urine samples were collected according to the schedule in Tables 4 and 5 for Parts 1 and 2, respectively. The pre-dose sample on Day 1 was collected any time in the 2 hours prior to dosing. A 30-minute window was allowed around collection intervals.

wtALK2 = biological target: T1, wtALK2 (Homo sapiens, UniProt Q04771); assay: wtALK2 functional assays; format: biochemical; details: several functional assays; read-out: wtALK2 activity potency (IC50)
T1 sequence (Q04771 21-509): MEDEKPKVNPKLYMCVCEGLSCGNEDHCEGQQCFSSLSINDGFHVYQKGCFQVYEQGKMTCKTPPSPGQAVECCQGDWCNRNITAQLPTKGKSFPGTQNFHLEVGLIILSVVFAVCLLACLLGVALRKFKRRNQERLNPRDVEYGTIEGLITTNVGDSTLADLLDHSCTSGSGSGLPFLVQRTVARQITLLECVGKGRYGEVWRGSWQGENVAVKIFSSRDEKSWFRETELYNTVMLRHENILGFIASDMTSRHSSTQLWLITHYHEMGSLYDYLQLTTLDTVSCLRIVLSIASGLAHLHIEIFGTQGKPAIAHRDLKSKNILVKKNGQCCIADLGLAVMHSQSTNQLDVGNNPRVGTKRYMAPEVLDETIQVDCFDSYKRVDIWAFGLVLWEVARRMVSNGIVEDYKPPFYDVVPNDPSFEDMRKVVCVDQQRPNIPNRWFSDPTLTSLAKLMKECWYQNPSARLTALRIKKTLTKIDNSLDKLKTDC

ALK2(R206H) = biological target: T2, ALK2(R206H) (Homo sapiens, UniProt Q04771, R206H); assay: ALK2(R206H) functional assays; format: biochemical; details: several functional assays; read-out: ALK2(R206H) activity potency (IC50)
T2 sequence (Q04771 21-509 R206H): T1 sequence (Q04771 21-509) with R186H

[6] = Parts 1 and 2, model included placebo
[7] = all cohorts and placebo subjects

plasma protein binding [3]: ≥ 99.9%
CYP2C19 inhibition (CYP2C19): is an inhibitor
plasma protein binding [4]: ≥ 99.9%
cumulative amount of parent compound excreted in the urine ([5]; Part 2, 5 to 20 mg QD): less than 1%
CLR,0-6 ([5]; 5 mg QD): 17.16 (90.4) mL/h
CLR,6-12 ([5]; 5 mg QD): 11.11 (152.2) mL/h
CLR,32-24 ([5]; 5 mg QD): 12.32 (83.5) mL/h
CLR,144-150 ([5]; 5 mg QD): 22.90 (79.5) mL/h
CLR,150-156 ([5]; 5 mg QD): 10.85 (144.3) mL/h
CLR,156-168 ([5]; 5 mg QD): 10.66 (114.9) mL/h
Cum % excreted0-168 ([5]; 5 mg QD): 0.2515 (114.5) %
CumAe0-168 ([5]; 5 mg QD): 88,030 (114.5) ng
CLR,0-6 ([5]; 10 mg QD): 9.850 (75.1) mL/h
CLR,6-12 ([5]; 10 mg QD): 5.468 (73.0) mL/h
CLR,32-24 ([5]; 10 mg QD): 5.694 (65.7) mL/h
CLR,144-150 ([5]; 10 mg QD): 12.01 (64.4) mL/h
CLR,150-156 ([5]; 10 mg QD): 4.787 (168.5) mL/h
CLR,156-168 ([5]; 10 mg QD): 3.480 (152.2) mL/h
Cum % excreted0-168 ([5]; 10 mg QD): 0.1209 (66.5) %
CumAe0-168 ([5]; 10 mg QD): 84,600 (66.5) ng
CLR,0-6 ([5]; 15 mg QD): 14.19 (131.3) mL/h
CLR,6-12 ([5]; 15 mg QD): 7.172 (100.3) mL/h
CLR,32-24 ([5]; 15 mg QD): 6.837 (92.5) mL/h
CLR,144-150 ([5]; 15 mg QD): 11.49 (171.8) mL/h
CLR,150-156 ([5]; 15 mg QD): 8.596 (123.2) mL/h
CLR,156-168 ([5]; 15 mg QD): 6.846 (93.4) mL/h
Cum % excreted0-168 ([5]; 15 mg QD): 0.1676 (89.5) %
CumAe0-168 ([5]; 15 mg QD): 176,000 (89,5) ng
CLR,0-6 ([5]; 20 mg QD): 13.36 (76.2) mL/h
CLR,6-12 ([5]; 20 mg QD): 9.673 (64.5) mL/h
CLR,32-24 ([5]; 20 mg QD): 7.595 (39.1) mL/h
CLR,144-150 ([5]; 20 mg QD): 15.28 (85.8) mL/h
CLR,150-156 ([5]; 20 mg QD): 7.978 (54.7) mL/h
CLR,156-168 ([5]; 20 mg QD): 4.674 (146.4) mL/h
Cum % excreted0-168 ([5]; 20 mg QD): 0.1705 (47.2) %
CumAe0-168 ([5]; 20 mg QD): 238,600 (47.2) ng
IC50 (wtALK2): < 100 nM
IC50 (ALK2(R206H)): < 100 nM
Structure (SMILES): COc1cc(-n2cnc(Nc3nc(N4CCC[C@H]4C(N)=O)nc4sccc34)c2)cc(OC)c1OC.O=C(O)CC(O)(CC(=O)O)C(=O)O [Compound A]
slope of ΔQTcF-concentration model ([1]; Parts 1 and 2): 0.0002
ΔQTcF-concentration model fit line and confidence boundaries ([1]; Parts 1 and 2): below 10 msec
slope of ΔHR-concentration model [1, 6]: 0.0004
slope of ΔPR-concentration model [1, 6]: −0.0033
slope of ΔQRS-concentration model [1, 6]: 0.0004
model predicted HR changes ([1]; at all concentrations): < 1 bpm
model predicted PR changes ([1]; at all concentrations): less than 2 msec
effect on the ECG (12-lead Holter monitoring) ([1]; single doses up to 25 mg and multiple daily doses over 7 days up to 20 mg): absence of a clinically significant effect
correlation of BP with dose or exposure ([2]; Parts 1 and 2): no meaningful correlation
slope of Δ diastolic BP-concentration model [2, 7]: 0.00151
slope of Δ systolic BP-concentration model [2, 7]: 0.00686
